Patent publication US20110046217A1, “USE OF 2,2'-CYCLOLIGNANS FOR INDUCING, RESTORING OR STIMULATING THE PIGMENTATION OF THE SKIN, HAIR OR HAIRS” (priority 2007, published 2011)
Values joined by “and” are separate entries in the source; they are usually repeats but may differ in a detail not shown here. Equal values may be shown once.

Tests used:
B16 melanocytes [1] = assay: MTT test and morphological observations, viability of B16 melanocytes; format: cell-based; settings: for % cell viability: Table 4; for MTT test, average / MTT test, single reading / viability (%): 72 h contact; for MTT (%): Table 2, plate 1
B16 melanocytes [2] = assay: Melanin assay, synthesis of melanin by B16 melanocytes; format: cell-based; settings: for melanin production in the melanocyte cultures: treated at non-toxic doses
Procedure: The melanogenesis-stimulating effect of gomisin A was measured on B16 melanocyte cultures.
For gomisin A, the following were determined: • after culturing for 10 days under standard conditions, in 24-well plates, in Promocell medium free of “phorbol myristate acetate” (PMA):
the amount of melanin present in the cultures, by spectrophotometric measurement of the melanin produced, after alkaline extraction, relative to 100% of the control (the control corresponds to the test performed without test compound).
The melanogenesis-stimulating effect of gomisin C was measured on B16 melanocyte cultures.
For gomisin C, the following were determined: • after culturing for 10 days under standard conditions, in 24-well plates, in Promocell medium free of “phorbol myristate acetate” (PMA): […]

[3] = system: Caucasian primary melanocytes; assay: Melanin produced in normal human melanocytes; format: cell-based; settings: 30 μM, 4 days, in the presence of L-dopa (50 μM), vs control
Procedure: The study was carried out on Caucasian primary melanocytes during culturing. The test and reference formulations were applied in the presence of L-dopa which is the substrate of tyrosinase (50 μM) (Sigma, D9628-5G) for 4 days, the culture medium having been renewed after 2 days. The product GPN000715 was applied at three different concentrations: 10 μM, 30 μM and 80 μM. An application of 100 nM of the reference element (MSH) was carried out, and also an application of 0.1 mM of arbutin. The untreated control cells (CTL) stayed in the culture medium.
The melanocytes were seeded in 6-well plates at a cell density of +/−100 000 cells. One week after seeding the cells, the test and reference products were applied, in the presence of L-dopa. After 4 days of treatment, cell lysis was carried out using a solution of NaOH (1N) (Merck, 109956) over 24 hours, at 37° C. The cell lysates were then centrifuged for 10 minutes, then 120 μl of each lysate was transferred into a 96-well plate in order to read the absorbance at 450 nm. The melanin content of each sample was quantified by comparison with the absorbances from the standard curve made with synthetic melanin (Sigma, M8631-100MG), ranging from 0 to 100 μg/ml.
FIG. 1 represents a quantification of the production of melanin by melanocytes, in a single layer, after 4 days of application in the presence of the test and reference elements. […]

follicle (hair bulb) = assay: Pigmentation and survival of the hair follicle
melanocyte = assay: Formation of a dense dendritic network in the melanocyte; format: cell-based
keratinocytes = assay: Phagocytic activity of the keratinocytes; format: cell-based

COc1cc2c(c(OC)c1OC)-c1c(cc3c(c1OC)OCO3)C[C@H](C)[C@](C)(O)[C@H]2OC(=O)c1ccccc1 [Gomisin C, gomisin C]
% cell viability (B16 melanocytes [1]; 0.4 μg/ml): 102%
% cell viability (B16 melanocytes [1]; 2 μg/ml): 97%
% cell viability (B16 melanocytes [1]; 8 μg/ml): 101%
MTT test, average (B16 melanocytes [1]; gomisin C 0.0002 %): 2.783
MTT test, single reading (B16 melanocytes [1]; gomisin C 0.0002 %): 2.786 and 2.783 and 2.780
viability (%) (B16 melanocytes [1]; gomisin C 0.0002 %): 101%
MTT test, average (B16 melanocytes [1]; gomisin C 0.0008 %): 2.844
MTT test, single reading (B16 melanocytes [1]; gomisin C 0.0008 %): 2.834 and 2.824 and 2.873
viability (%) (B16 melanocytes [1]; gomisin C 0.0008 %): 103%
MTT test, average (B16 melanocytes [1]; gomisin C 0.004 %): 1.899
MTT test, single reading (B16 melanocytes [1]; gomisin C 0.004 %): 1.871 and 1.873 and 1.954
viability (%) (B16 melanocytes [1]; gomisin C 0.004 %): 69%
MTT test, average (B16 melanocytes [1]; gomisin C 0.02 %): 1.136
MTT test, single reading (B16 melanocytes [1]; gomisin C 0.02 %): 1.208 and 1.146 and 1.205
viability (%) (B16 melanocytes [1]; gomisin C 0.02 %): 43%
MTT test, average (B16 melanocytes [1]; gomisin C 1E−06 %): 2.811
MTT test, single reading (B16 melanocytes [1]; gomisin C 1E−06 %): 2.793 and 2.813 and 2.827
viability (%) (B16 melanocytes [1]; gomisin C 1E−06 %): 102%
MTT test, average (B16 melanocytes [1]; gomisin C 2.56E−07 %): 2.790
MTT test, single reading (B16 melanocytes [1]; gomisin C 2.56E−07 %): 2.786 and 2.781 and 2.804
viability (%) (B16 melanocytes [1]; gomisin C 2.56E−07 %): 101%
MTT test, average (B16 melanocytes [1]; gomisin C 3E−05 %): 2.801
MTT test, single reading (B16 melanocytes [1]; gomisin C 3E−05 %): 2.789 and 2.795 and 2.818
viability (%) (B16 melanocytes [1]; gomisin C 3E−05 %): 101%
MTT test, average (B16 melanocytes [1]; gomisin C 6E−06 %): 2.792
MTT test, single reading (B16 melanocytes [1]; gomisin C 6E−06 %): 2.778 and 2.796 and 2.801
viability (%) (B16 melanocytes [1]; gomisin C 6E−06 %): 101%
Melanin (B16 melanocytes [2]; Table 4, 0.4 μg/ml): 16.66 µg/mL
Melanin % Control (B16 melanocytes [2]; Table 4, 0.4 μg/ml): 103%
Melanin (B16 melanocytes [2]; Table 4, 2 μg/ml): 17.46 µg/mL
Melanin % Control (B16 melanocytes [2]; Table 4, 2 μg/ml): 108%
Melanin (B16 melanocytes [2]; Table 4, 8 μg/ml): 19.44 µg/mL
Melanin % Control (B16 melanocytes [2]; Table 4, 8 μg/ml): 121%
melanin production in the melanocyte cultures (B16 melanocytes [2]): significant increase in melanin production

COc1cc2c(c(OC)c1OC)-c1c(cc3c(c1OC)OCO3)C[C@H](C)[C@](C)(O)C2 [Gomisin A, gomisin A]
increase of the amount of melanin in normal human melanocytes [3]: ~40%
degeneration and survival of the follicle (follicle (hair bulb)): limits degeneration and increases the survival of the follicle
pigmentation of the follicle (hair bulb) (follicle (hair bulb)): substantially stimulates the pigmentation of the follicle
formation of a dense dendritic network in the melanocyte (melanocyte): stimulating
MTT (%) (B16 melanocytes [1]; 0.0022 mg/ml): 102%
MTT (%) (B16 melanocytes [1]; 0.0067 mg/ml): 99%
MTT (%) (B16 melanocytes [1]; 0.02 mg/ml): 102%
MTT test, average (B16 melanocytes [1]; gomisin A 0.002 mg/ml): 2.001
MTT test, single reading (B16 melanocytes [1]; gomisin A 0.002 mg/ml): 2.022 and 2.112 and 2.077 and 1.920 and 1.933 and 1.942
viability (%) (B16 melanocytes [1]; gomisin A 0.002 mg/ml): 105%
MTT test, average (B16 melanocytes [1]; gomisin A 0.007 mg/ml): 2.081
MTT test, single reading (B16 melanocytes [1]; gomisin A 0.007 mg/ml): 2.046 and 2.137 and 2.227 and 2.061 and 1.966
viability (%) (B16 melanocytes [1]; gomisin A 0.007 mg/ml): 109%
MTT test, average (B16 melanocytes [1]; gomisin A 0.02 mg/ml): 2.128
MTT test, single reading (B16 melanocytes [1]; gomisin A 0.02 mg/ml): 2.227 and 2.046 and 2.241 and 1.988 and 2.085 and 2.182
viability (%) (B16 melanocytes [1]; gomisin A 0.02 mg/ml): 112%
MTT test, average (B16 melanocytes [1]; gomisin A 2E−04 mg/ml): 1.850
MTT test, single reading (B16 melanocytes [1]; gomisin A 2E−04 mg/ml): 1.878 and 1.932 and 1.972 and 1.721 and 1.807 and 1.787
viability (%) (B16 melanocytes [1]; gomisin A 2E−04 mg/ml): 97%
MTT test, average (B16 melanocytes [1]; gomisin A 3E−05 mg/ml): 1.835
MTT test, single reading (B16 melanocytes [1]; gomisin A 3E−05 mg/ml): 1.961 and 1.784 and 1.853 and 1.764 and 1.910 and 1.740
viability (%) (B16 melanocytes [1]; gomisin A 3E−05 mg/ml): 96%
MTT test, average (B16 melanocytes [1]; gomisin A 7E−04 mg/ml): 1.974
MTT test, single reading (B16 melanocytes [1]; gomisin A 7E−04 mg/ml): 1.976 and 1.996 and 2.147 and 1.844 and 1.896 and 1.987
viability (%) (B16 melanocytes [1]; gomisin A 7E−04 mg/ml): 104%
MTT test, average (B16 melanocytes [1]; gomisin A 8E−05 mg/ml): 1.886
MTT test, single reading (B16 melanocytes [1]; gomisin A 8E−05 mg/ml): 1.964 and 1.891 and 1.965 and 1.899 and 1.829 and 1.770
viability (%) (B16 melanocytes [1]; gomisin A 8E−05 mg/ml): 99%
MTT test, average (B16 melanocytes [1]; gomisin A 9.1E−06 mg/ml): 1.910
MTT test, single reading (B16 melanocytes [1]; gomisin A 9.1E−06 mg/ml): 1.837 and 1.963 and 1.930 and 1.951 and 1.879 and 1.901
viability (%) (B16 melanocytes [1]; gomisin A 9.1E−06 mg/ml): 100%
Melanin (B16 melanocytes [2]; Table 2, plate 1, 0.0022 mg/ml): 16.62 µg/mL
Melanin % Control (B16 melanocytes [2]; Table 2, plate 1, 0.0022 mg/ml): 121%
Melanin (B16 melanocytes [2]; Table 2, plate 1, 0.0067 mg/ml): 22.66 µg/mL
Melanin % Control (B16 melanocytes [2]; Table 2, plate 1, 0.0067 mg/ml): 164%
Melanin (B16 melanocytes [2]; Table 2, plate 1, 0.02 mg/ml): 27.73 µg/mL
Melanin % Control (B16 melanocytes [2]; Table 2, plate 1, 0.02 mg/ml): 201%
melanin production in the melanocyte cultures (B16 melanocytes [2]): significant increase in melanin production
phagocytic activity of the keratinocytes (keratinocytes): stimulating

CC(C)Cn1c(=O)n(C)c(=O)c2[nH]cnc21 [IBMX, reference compound]
MTT (%) (B16 melanocytes [1]; 200 μM): 99%
% cell viability (B16 melanocytes [1]; 8 μM): 96%
% cell viability (B16 melanocytes [1]; 40 μM): 94%
% cell viability (B16 melanocytes [1]; 200 μM): 99%
Melanin (B16 melanocytes [2]; Table 2, plate 1, 200 μM): 173.77 µg/mL
Melanin % Control (B16 melanocytes [2]; Table 2, plate 1, 200 μM): 1261%
Melanin (B16 melanocytes [2]; Table 4, 8 μM): 18.88 µg/mL
Melanin % Control (B16 melanocytes [2]; Table 4, 8 μM): 117%
Melanin (B16 melanocytes [2]; Table 4, 40 μM): 25.91 µg/mL
Melanin % Control (B16 melanocytes [2]; Table 4, 40 μM): 161%
Melanin (B16 melanocytes [2]; Table 4, 200 μM): 90.45 µg/mL
Melanin % Control (B16 melanocytes [2]; Table 4, 200 μM): 561%
